Laboratory results as given in the supplement of paper PMC11451515.

Tested on: NOMO1
Experiment: cell viability relative to DMSO control; higher = less cytotoxic
Settings: 48 h
Method in brief: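 NOMO1, SEM and P12-Ichikawa leukemia cells spent at least four passages adapting to each medium before use. They were seeded at 500 cells/well (NOMO1, SEM) or 1000 cells/well (P12-Ichikawa) in 5 μl in 1536-well plates and pin-dosed with library compounds in DMSO at 11 threefold steps from 47 μM down to 0.79 nM. After 48 h at 37°C, CellTiter-Glo One luminescence was read. Viability is reported as a percentage of the DMSO wells on each plate, with cell-free wells as background.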

[1] = HPLM + 10% dialyzed FBS, 0.000781 µM
[2] = HPLM + 10% dialyzed FBS, 0.00234 µM
[3] = HPLM + 10% dialyzed FBS, 0.00702 µM
[4] = HPLM + 10% dialyzed FBS, 0.0211 µM
[5] = HPLM + 10% dialyzed FBS, 0.0632 µM
[6] = HPLM + 10% dialyzed FBS, 0.19 µM
[7] = HPLM + 10% dialyzed FBS, 0.569 µM
[8] = HPLM + 10% dialyzed FBS, 1.71 µM
[9] = HPLM + 10% dialyzed FBS, 5.12 µM
[10] = HPLM + 10% dialyzed FBS, 15.4 µM
[11] = HPLM + 10% dialyzed FBS, 46.1 µM
[12] = RPMI 5 mM glucose + 10% FBS, 0.000781 µM
[13] = RPMI 5 mM glucose + 10% FBS, 0.00234 µM
[14] = RPMI 5 mM glucose + 10% FBS, 0.00702 µM
[15] = RPMI 5 mM glucose + 10% FBS, 0.0211 µM
[16] = RPMI 5 mM glucose + 10% FBS, 0.0632 µM
[17] = RPMI 5 mM glucose + 10% FBS, 0.19 µM
[18] = RPMI 5 mM glucose + 10% FBS, 0.569 µM
[19] = RPMI 5 mM glucose + 10% FBS, 1.71 µM
[20] = RPMI 5 mM glucose + 10% FBS, 5.12 µM
[21] = RPMI 5 mM glucose + 10% FBS, 15.4 µM
[22] = RPMI 5 mM glucose + 10% FBS, 46.1 µM
[23] = RPMI 5 mM glucose + 10% dialyzed FBS, 0.000781 µM
[24] = RPMI 5 mM glucose + 10% dialyzed FBS, 0.00234 µM
[25] = RPMI 5 mM glucose + 10% dialyzed FBS, 0.00702 µM
[26] = RPMI 5 mM glucose + 10% dialyzed FBS, 0.0211 µM
[27] = RPMI 5 mM glucose + 10% dialyzed FBS, 0.0632 µM
[28] = RPMI 5 mM glucose + 10% dialyzed FBS, 0.19 µM
[29] = RPMI 5 mM glucose + 10% dialyzed FBS, 0.569 µM
[30] = RPMI 5 mM glucose + 10% dialyzed FBS, 1.71 µM
[31] = RPMI 5 mM glucose + 10% dialyzed FBS, 5.12 µM
[32] = RPMI 5 mM glucose + 10% dialyzed FBS, 15.4 µM
[33] = RPMI 5 mM glucose + 10% dialyzed FBS, 46.1 µM

SMILES | cell viability [1] | cell viability [2] | cell viability [3] | cell viability [4] | cell viability [5] | cell viability [6] | cell viability [7] | cell viability [8] | cell viability [9] | cell viability [10] | cell viability [11] | cell viability [12] | cell viability [13] | cell viability [14] | cell viability [15] | cell viability [16] | cell viability [17] | cell viability [18] | cell viability [19] | cell viability [20] | cell viability [21] | cell viability [22] | cell viability [23] | cell viability [24] | cell viability [25] | cell viability [26] | cell viability [27] | cell viability [28] | cell viability [29] | cell viability [30] | cell viability [31] | cell viability [32] | cell viability [33]
CC1(C)CCC[C@]2(C)[C@H]3CC(=O)O[C@]3(C)CC[C@@H]12 | 126% | 107% | 113% | 114% | 118% | 121% | 123% | 112% | 126% | 120% | 98.6% | 119% | 111% | 118% | 121% | 107% | 112% | 129% | 98% | 111% | 110% | 81.2% | 122% | 112% | 125% | 120% | 125% | 106% | 110% | 105% | 106% | 101% | 92.5%
C=CC(=O)Nc1cccc(Oc2nc(Nc3ccc(N4CCN(C)CC4)cc3)ncc2Cl)c1 | 93.3% | 110% | 119% | 125% | 131% | 112% | 106% | 97.2% | 88.3% | 84.9% | 135% |  |  |  |  |  |  |  |  |  |  |  |  |  |  |  |  |  |  |  |  |  | 
C=C(C)[C@@H]1CC[C@]2(C(=O)O)CC[C@]3(C)[C@H](CC[C@@H]4[C@@]5(C)CC[C@H](O)C(C)(C)[C@@H]5CC[C@]43C)[C@@H]12 | 115% | 124% | 107% | 123% | 119% | 110% | 118% | 105% | 102% | 94.6% | 95.7% | 116% | 118% | 121% | 111% | 115% | 111% | 119% | 113% | 111% | 114% | 97.1% |  |  |  |  |  |  |  |  |  |  | 
COc1cccc2cc(-c3nc(C4CCC(C(=O)O)CC4)n4ncnc(N)c34)[nH]c12 (stereo not drawn) | 116% | 124% | 102% | 119% | 99.8% | 94.7% | 68.2% | 38.7% | 34.8% | 37.3% | 47.1% | 109% | 113% | 107% | 106% | 105% | 105% | 98.4% | 55.3% | 30% | 26.3% | 19.9% | 105% | 104% | 108% | 115% | 102% | 105% | 88.1% | 53.6% | 41.7% | 26.9% | 27.8%
CNC(=O)c1ccc(-c2cnc3ncc(Cc4ccc5ncccc5c4)n3n2)cc1F | 113% | 127% | 120% | 103% | 132% | 116% | 131% | 133% | 125% | 117% | 135% |  |  |  |  |  |  |  |  |  |  |  | 116% | 124% | 138% | 131% | 126% | 136% | 129% | 136% | 130% | 137% | 145%
COC1=NC(=NC(=C1N\C2=N\CCN2)Cl)C | 113% | 94.9% | 90.3% | 93.6% | 111% | 104% | 89.5% | 109% | 82% | 97.6% | 84.8% | 79.1% | 83.8% | 89.1% | 93.1% | 94% | 100% | 84.2% | 91.8% | 92.5% | 86.5% | 90% | 86.2% | 85.8% | 82.8% | 85% | 95.6% | 94% | 91.3% | 86.5% | 80.3% | 89.5% | 85.3%
C/C=C(/C)C(=O)O[C@H]1C(C)=C2[C@H]([C@@H]1OC(=O)CCCCCCC)[C@@](C)(OC(C)=O)C[C@H](OC(=O)CCC)[C@@]1(O)[C@H]2OC(=O)[C@@]1(C)O | 100% | 110% | 99.4% | 127% | 56.6% | 12.5% | 7.29% | 4.31% | 2.9% | 2.91% | 5% | 112% | 112% | 130% | 119% | 92.7% | 17% | 9.53% | 10.4% | 6.41% | 3.83% | 5.08% | 117% | 121% | 129% | 123% | 68% | 13.4% | 8.71% | 10.1% | 7.55% | 5.66% | 5.67%
Cn1c(=O)c2c(ncn2C)n(C)c1=O.O=C(O)CC(O)(CC(=O)O)C(=O)O | 118% | 106% | 123% | 133% | 105% | 114% | 100% | 104% | 98.9% | 86% | 109% | 95.4% | 98.9% | 107% | 101% | 115% | 104% | 106% | 106% | 101% | 91.2% | 93.8% | 93.8% | 113% | 109% | 106% | 114% | 107% | 119% | 98.6% | 97.3% | 89.2% | 85.4%
COC1=CC2=NC=CC(=C2C=C1)OC3=CN=C(NC(=O)C/4=C(C)/N(CC(C)(C)O)N(C4=O)C5=CC=CC=C5)C=C3 | 82% | 87.4% | 86.3% | 101% | 103% | 107% | 98.9% | 96.4% | 69.1% | 88% | 62.1% | 78.8% | 92% | 88.6% | 95% | 91.7% | 91.7% | 91.2% | 98.7% | 85.6% | 93.4% | 81.8% | 73.7% | 86.8% | 91.6% | 88.2% | 97.7% | 83.1% | 96.6% | 84.8% | 77.2% | 94.1% | 64%
Cc1cc(OCCCc2c(C(=O)O)n(Cc3cccnc3)c3c(-c4c(COc5ccc(N6CCN([S+](C)(=O)[O-])CC6)cc5)nn(C)c4C)cccc23)cc(C)c1Cl | 92.9% | 112% | 98.3% | 107% | 100% | 104% | 100% | 92.7% | 92.1% | 87% | 71.8% | 86% | 87.7% | 94.8% | 89.8% | 95.6% | 90.8% | 87.7% | 91.5% | 82.4% | 78.5% | 74.9% | 92.4% | 90.5% | 98.1% | 98.4% | 95.8% | 86.1% | 87.7% | 98.2% | 96.7% | 91.2% | 78.6%
O=C(NOCC(O)CO)c1cc(Br)c(F)c(F)c1Nc1ccc(I)cc1F (stereo not drawn) | 65.8% | 77.1% | 72.1% | 79.8% | 59.2% | 50.5% | 30.1% | 32.6% | 29% | 33.9% | 20% | 69.1% | 90.6% | 67.6% | 73.3% | 66.5% | 50.5% | 28.1% | 33.7% | 27.5% | 28.8% | 27.8% | 81.3% | 84.3% | 59.2% | 58.1% | 49.8% | 40.9% | 27.5% | 30.3% | 26.7% | 31.2% | 24.6%
FC(F)(F)c1ccc(/C=C/c2nc(COc3ccc(CCCCn4ccnn4)cc3)co2)cc1 | 127% | 125% | 122% | 127% | 120% | 104% | 107% | 79.4% | 27.7% | 25.2% | 22.6% | 125% | 122% | 128% | 137% | 134% | 127% | 126% | 92.1% | 20.5% | 15.3% | 13.1% | 122% | 143% | 122% | 124% | 124% | 116% | 130% | 128% | 27.8% | 24.1% | 19.9%
CN1[C@@H]2CC(OC(=O)[C@@H](CO)c3ccccc3)C[C@H]1[C@H]1O[C@H]12 (stereo partly drawn) | 94.8% | 120% | 108% | 124% | 103% | 104% | 106% | 95.8% | 93.8% | 92.3% | 121% | 87.3% | 86.7% | 101% | 85.5% | 90.3% | 85.2% | 86.3% | 93.4% | 82.9% | 81.4% | 81.3% | 80.4% | 95.5% | 98.8% | 88.5% | 102% | 103% | 90.9% | 99.4% | 88.2% | 95.4% | 89.8%
CN[S+](=O)([O-])Cc1ccc2[nH]cc(CCN(C)C)c2c1 | 116% | 124% | 118% | 124% | 130% | 130% | 148% | 136% | 128% | 135% | 122% | 106% | 124% | 110% | 118% | 110% | 120% | 117% | 109% | 129% | 139% | 111% | 113% | 118% | 114% | 122% | 118% | 123% | 122% | 120% | 118% | 129% | 129%
